System: Dog PRP
Experiment: In-Vitro Platelet Aggregation in PRP (ADP-induced, dog platelet-rich plasma)
Assay type: cell-based
Details: Canis lupus familiaris, 1 minute preincubation at 37° C., IC50 by linear regression of dose response curve
Procedure: In-Vitro Platelet Aggregation in PRP
Healthy male or female dogs were fasted for 8 hours prior to drawing blood; then 30 ml whole blood was collected using a butterfly needle and 30 cc plastic syringe with 3 ml of 0.129M buffered sodium citrate (3.8%). The syringe was rotated carefully as blood was drawn to mix the citrate. Platelet-rich plasma (PRP) was prepared by centrifugation at 975×g for 3.17 minutes at room temperature, allowing the centrifuge to coast to a stop without braking. The PRP was removed from the blood with a plastic pipette and placed in a plastic capped, 50 ml Corning conical sterile centrifuge tube which was held at room temperature. Platelet poor plasma (PPP) was prepared by centrifuging the remaining blood at 2000×g for 15 minutes at room temperature allowing the centrifuge to coast to a stop without braking. The PRP was adjusted with PPP to a count of 2-3×10^8 platelets per ml. 400 μl of the PRP preparation and 50 μl of the compound to be tested or saline were preincubated for 1 minute at 37° C. in a BioData aggregometer (BioData, Horsham, Pa.). 50 μl of adenosine 5'-diphosphate (ADP) (50 μm final concentration) was added to the cuvettes and the aggregation was monitored for 1 minute. All compounds are tested in duplicate. Results are calculated as follows: […]

Structure (SMILES) | IC50 [nM]
N=C(N)c1ccc(CCCCNC(=O)N[C@@H](CC(=O)O)C(=O)N[C@@H](Cc2ccccc2)C(=O)O)cc1 [Example 2, N-[N-[[[4-[4-(aminoiminomethyl)phenyl]butyl]amino]-carbonyl]-L-α-aspartyl]-L-phenylalanine] | 760
N=C(N)c1ccc(CCCCNC(=O)N[C@@H](CC(=O)O)C(=O)N[C@@H](Cc2c[nH]c3ccccc23)C(=O)O)cc1 [Example 3, N-[N-[[[4-[4-(aminoiminomethyl)phenyl]butyl]amino]carbonyl]-L-α-spartyl]-L-tryptophane] | 200
